{"source": "ChEMBL document CHEMBL4828727", "about": "“Antibacterial and antitumoral properties of 1,2,3-triazolo fused triterpenes and their mechanism of inhibiting the proliferation of HL-60 cells” (Eur J Med Chem, 2021)", "key": {"[1]": {"test_system": "HL-60", "test": "Cell cycle arrest in human HL-60 cells assessed as decrease in accumulation in S phase at 6 uM incubated for 48 hrs by propidium iodide staining based flow cytometric analysis (reference value: […])", "format": "functional", "parameters": "scale not given: the % may be the effect or the level left"}, "[2]": {"test_system": "HL-60", "test": "Induction of apoptosis in human HL-60 cells assessed as necrotic cells at 8 uM after 48 hrs by Annexin V-PE and 7AAD based flow cytometry (reference value: 2.64 to 3.64%)", "format": "functional"}, "[3]": {"test_system": "HL-60", "test": "Induction of mitochondrial membrane potential loss in human HL-60 cells at 10 uM after 48 hrs by JC-1 staining based flow cytometry (reference value: 3.49%)", "format": "functional"}, "[4]": {"test_system": "HL-60", "test": "Induction of apoptosis in human HL-60 cells assessed as early apoptotic cells at 6 uM in presence of 3-MA after 48 hrs by Annexin V-PE/7-AAD dual staining based flow cytometry (reference value: 3.14%)", "format": "functional"}, "[5]": {"test_system": "HL-60", "test": "Cell cycle arrest in human HL-60 cells assessed as increase in accumulation in G0/G1 phase at 8 uM incubated for 48 hrs by propidium iodide staining based flow cytometric analysis (reference value: 64.97%)", "format": "functional"}, "[6]": {"test": "Antiproliferative activity against human HAP1 cells assessed as inhibition of cell viability measured after 72 hrs by colorimetric MTS viability assay", "format": "functional, cell-based", "conditions": "HAP1, 72 h"}, "[7]": {"test_system": "HL-60", "test": "Induction of apoptosis in human HL-60 cells assessed as late apoptotic cells at 10 uM in presence of 3-MA after 48 hrs by Annexin V-PE/7-AAD dual staining based flow cytometry (reference value: 3.12%)", "format": "functional"}, "[8]": {"test_system": "HL-60", "test": "Induction of apoptosis in human HL-60 cells assessed as live cells at 6 uM in presence of 3-MA after 48 hrs by Annexin V-PE/7-AAD dual staining based flow cytometry (reference value: 91.1%)", "format": "functional"}, "[9]": {"test_system": "HL-60", "test": "Induction of apoptosis in human HL-60 cells assessed as late apoptotic cells at 8 uM after 48 hrs by Annexin V-PE/7-AAD dual staining based flow cytometry (Rvb =3.93%)", "format": "functional"}, "[10]": {"test_system": "HL-60", "test": "Induction of apoptosis in human HL-60 cells assessed as live cells at 10 uM in presence of 3-MA after 48 hrs by Annexin V-PE/7-AAD dual staining based flow cytometry (reference value: 91.1%)", "format": "functional"}, "[11]": {"test_system": "HL-60", "test": "Induction of apoptosis in human HL-60 cells assessed as early apoptotic cells at 6 uM after 48 hrs by Annexin V-PE/7-AAD dual staining based flow cytometry (reference value: 1.72 to 3.25%)", "format": "functional"}, "[12]": {"test_system": "HL-60", "test": "Induction of apoptosis in human HL-60 cells assessed as live cells at 10 uM after 48 hrs by Annexin V-PE/7-AAD dual staining based flow cytometry (reference value: 90.1 to 90.7%)", "format": "functional"}, "[13]": {"test_system": "K562", "test": "cells", "format": "functional, cell-based", "conditions": "Homo sapiens, K562, 72 h", "description": "Antiproliferative activity against human K562 cells assessed as inhibition of cell viability measured after 72 hrs by real-time IncuCyte proliferation analysis"}, "[14]": {"test_system": "CAPAN-1", "test": "cells", "format": "functional, cell-based", "conditions": "Homo sapiens, CAPAN-1, 72 h", "description": "Antiproliferative activity against human CAPAN-1 cells assessed as inhibition of cell viability measured after 72 hrs by colorimetric MTS viability assay"}, "[15]": {"test_system": "HL-60", "test": "Induction of apoptosis in human HL-60 cells assessed as late apoptotic cells at 10 uM after 48 hrs by Annexin V-PE/7-AAD dual staining based flow cytometry (reference value: 3.93%)", "format": "functional"}, "[16]": {"test": "Antiproliferative activity against human DND41 cells assessed as inhibition of cell viability measured after 72 hrs by real-time IncuCyte proliferation analysis", "format": "functional, cell-based", "conditions": "DND41, 72 h"}, "[17]": {"test_system": "HL-60", "test": "Induction of apoptosis in human HL-60 cells assessed as early apoptotic cells at 8 uM after 48hrs by Annexin V-PE/7-AAD dual staining based flow cytometry (reference value: 1.72 to 3.25%)", "format": "functional"}, "[18]": {"test_system": "HL-60", "test": "cells", "format": "functional, cell-based", "conditions": "Homo sapiens, HL-60, 72 h", "description": "Antiproliferative activity against human HL-60 cells assessed as inhibition of cell viability measured after 72 hrs by real-time IncuCyte proliferation analysis"}, "[19]": {"test_system": "HL-60", "test": "Induction of apoptosis in human HL-60 cells assessed as late apoptotic cells at 6 uM in presence of 3-MA after 48 hrs by Annexin V-PE/7-AAD dual staining based flow cytometry (reference value: 3.12%)", "format": "functional"}, "[20]": {"test_system": "Rec1", "test": "cells", "format": "functional, cell-based", "conditions": "Homo sapiens, Rec1, 72 h", "description": "Cytotoxicity against human REC1 cells assessed as inhibition of cell viability measured after 72 hrs by real-time IncuCyte proliferation analysis"}, "[21]": {"test_system": "HL-60", "test": "Induction of apoptosis in human HL-60 cells assessed as live cells at 8 uM in presence of 3-MA after 48 hrs by Annexin V-PE/7-AAD dual staining based flow cytometry (reference value: 91.1%)", "format": "functional"}, "[22]": {"test_system": "HL-60", "test": "Induction of apoptosis in human HL-60 cells assessed as early apoptotic cells at 10 uM in presence of 3-MA after 48 hrs by Annexin V-PE/7-AAD dual staining based flow cytometry (reference value: 3.14%)", "format": "functional"}, "[23]": {"test_system": "HL-60", "test": "Induction of apoptosis in human HL-60 cells assessed as necrotic cells at 10 uM after 48 hrs by Annexin V-PE/7-AAD dual staining based flow cytometry (reference value: 2.64 to 3.64%)", "format": "functional"}, "[24]": {"test_system": "Jurkat", "test": "cells", "format": "functional, cell-based", "conditions": "Homo sapiens, 72 h", "description": "Cytotoxicity against human Jurkat cells assessed as inhibition of cell viability measured after 72 hrs by real-time IncuCyte proliferation analysis"}, "[25]": {"test_system": "HL-60", "test": "Induction of apoptosis in human HL-60 cells assessed as late apoptotic cells at 8 uM in presence of 3-MA after 48 hrs by Annexin V-PE and 7AAD based flow cytometry (reference value: 3.12%)", "format": "functional"}, "[26]": {"test_system": "MV4-11", "test": "cells", "format": "functional, cell-based", "conditions": "Homo sapiens, MV4-11, 72 h", "description": "Cytotoxicity against human MV4-11cells assessed as inhibition of cell viability measured after 72 hrs by real-time IncuCyte proliferation analysis"}, "[27]": {"test_system": "HL-60", "test": "Induction of autophagy in human HL-60 cells assessed as fold increase in MDC fluorescence intensity at 6 uM measured after 48 hrs by flow cytometry relative to control", "format": "functional"}, "[28]": {"test_system": "HL-60", "test": "Induction of mitochondrial membrane potential loss in human HL-60 cells at 6 uM after 48 hrs by JC-1 staining based flow cytometry (reference value: 3.49%)", "format": "functional"}, "[29]": {"test_system": "HL-60", "test": "Induction of apoptosis in human HL-60 cells assessed as necrotic cells at 6 uM in presence of 3-MA after 48 hrs by Annexin V-PE/7-AAD dual staining based flow cytometry (reference value: 2.62%)", "format": "functional"}, "[30]": {"test_system": "HL-60", "test": "Cell cycle arrest in human HL-60 cells assessed as increase in accumulation in G0/G1 phase at 10 uM incubated for 48 hrs by propidium iodide based flow cytometric analysis (Rvb =64.97%)", "format": "functional"}, "[31]": {"test_system": "HL-60", "test": "Induction of apoptosis in human HL-60 cells assessed as early apoptotic cells at 8 uM in presence of 3-MA after 48 hrs by Annexin V-PE/7-AAD dual staining based flow cytometry (reference value: 3.14%)", "format": "functional"}, "[32]": {"test_system": "Salmonella enterica subsp. enterica", "test": "Antibacterial activity against Salmonella enterica subsp.enterica ATCC13076 assessed as growth inhibition after 20 hrs by broth microdilution method", "format": "functional"}, "[33]": {"test_system": "Z-138", "test": "cells", "format": "functional, cell-based", "conditions": "Homo sapiens, Z-138, 72 h", "description": "Antiproliferative activity against human Z138 cells assessed as inhibition of cell viability measured after 72 hrs by real-time IncuCyte proliferation analysis"}, "[34]": {"test_system": "HL-60", "test": "Cell cycle arrest in human HL-60 cells assessed as accumulation of cells at G2/M phase at 8 uM incubated for 48 hrs by propidium iodide based flow cytometric analysis (reference value: 6.61%)", "format": "functional"}, "[35]": {"test_system": "HL-60", "test": "Induction of apoptosis in human HL-60 cells assessed as live cells at 6 uM after 48 hrs by Annexin V-PE/7-AAD dual staining based flow cytometry (reference value: 90.1 to 90.7%)", "format": "functional"}}, "note": "Activity calls are given as the source filed them. The rule behind the calls is not given here.", "data": [{"smiles": "COc1ccc2[nH]cc(CCn3nnc4c3C(C)(C)[C@@H]3CC[C@]5(C)[C@H](CC=C6[C@@H]7CC(C)(C)CC[C@]7(C(=O)O)CC[C@]65C)[C@@]3(C)C4)c2c1", "values": [{"measurement": "Activity", "setting": "[1]", "result": 24.83, "unit": "%"}, {"measurement": "Activity", "setting": "[2]", "result": 0.415, "unit": "%"}, {"measurement": "Activity", "setting": "[3]", "result": 60.8, "unit": "%"}, {"measurement": "Activity", "setting": "[4]", "result": 3.91, "unit": "%"}, {"measurement": "Activity", "setting": "[5]", "result": 73.3, "unit": "%"}, {"measurement": "IC50", "setting": "[6]", "result": 4.1, "unit": "µM"}, {"measurement": "Activity", "setting": "[7]", "result": 30.8, "unit": "%"}, {"measurement": "Activity", "setting": "[8]", "result": 82.1, "unit": "%"}, {"measurement": "Activity", "setting": "[9]", "result": 34.3, "unit": "%"}, {"measurement": "Activity", "setting": "[10]", "result": 54.2, "unit": "%"}, {"measurement": "Activity", "setting": "[11]", "result": 3.06, "unit": "%"}, {"measurement": "Activity", "setting": "[12]", "result": 20.4, "unit": "%"}, {"measurement": "IC50", "setting": "[13]", "result": 80.7, "unit": "µM"}, {"measurement": "IC50", "setting": "[14]", "result": 8.1, "unit": "µM"}, {"measurement": "Activity", "setting": "[15]", "result": 63.2, "unit": "%"}, {"measurement": "IC50", "setting": "[16]", "result": 7.2, "unit": "µM"}, {"measurement": "Activity", "setting": "[17]", "result": 4.97, "unit": "%"}, {"measurement": "IC50", "setting": "[18]", "result": 1.3, "unit": "µM"}, {"measurement": "Activity", "setting": "[19]", "result": 13.7, "unit": "%"}, {"measurement": "IC50", "setting": "[20]", "result": 6.2, "unit": "µM"}, {"measurement": "Activity", "setting": "[21]", "result": 68.9, "unit": "%"}, {"measurement": "Activity", "setting": "[22]", "result": 14.7, "unit": "%"}, {"measurement": "Activity", "setting": "[23]", "result": 0.628, "unit": "%"}, {"measurement": "IC50", "setting": "[24]", "result": 8.7, "unit": "µM"}, {"measurement": "Activity", "setting": "[25]", "result": 8.89, "unit": "%"}, {"measurement": "IC50", "setting": "[26]", "result": 12.8, "unit": "µM"}, {"measurement": "fold change (FC)", "setting": "[27]", "result": 1.49}, {"measurement": "Activity", "setting": "[28]", "result": 7.86, "unit": "%"}, {"measurement": "Activity", "setting": "[29]", "result": 0.358, "unit": "%"}, {"measurement": "Activity", "setting": "[30]", "result": 85.45, "unit": "%"}, {"measurement": "Activity", "setting": "[31]", "result": 20, "unit": "%"}, {"measurement": "MIC50", "setting": "[32]", "result": "inactive"}, {"measurement": "IC50", "setting": "[33]", "result": 11.3, "unit": "µM"}, {"measurement": "Activity", "setting": "[34]", "result": 5.02, "unit": "%"}, {"measurement": "Activity", "setting": "[35]", "result": 80, "unit": "%"}]}]}
